Test results: patent US20240009150A1, “CAPSAICYNS IN THE TREATMENT OF LEAKY GUT” (AXICHEM AB [SE]/[SE], priority 2020, published 2024)
Entries after “also recorded” stand apart in the source; their conditions may differ. Where two headings read alike, the source gives them in different places. Marks after values point to notes of the source that are not given here.

Columns and labels:
Assay type in all cases: cell-based
[1] = tested on: Chromobacterium violaceum CV026; assay: Quorum sensing inhibition, disc-diffusion assay with Chromobacterium violaceum CV026 (QS and antibacterial zones); conditions: for QS (zone of quorum sensing inhibition): disc diffusion, zone past the disk; for zone of inhibition at 7.81 µg/mL / zone of inhibition at 15.63 µg/mL / zone of inhibition at 31.13 µg/mL / zone of inhibition at 62.5 µg/mL / zone of inhibition at 125 µg/mL / zone of inhibition at 250 µg/mL / zone of inhibition at 500 µg/mL: Chromobacterium violaceum
Method: Chromobacterium violaceum CV026 is a violacein negative, double mini-Tn5 mutant from C. violaceum (ATCC 31532) that was used to identify quorum sensing inhibition.
(§1) A stock solution of 1000 ug of compound V and capsaicin was prepared by dissolving 1000 μg in 100 μl of ethanol and 900 μl of sterile water. The stock solutions were sequentially diluted with double volumes of solvent (10% aqueous ethanol solution) to yield 500/250/125/62.5/31.25/15.625/7.81 μg/ml test solutions.
Chromobacterium violaceum CV026 was used to determine the anti-quorum sensing activity. Inducer N-hexanoyl homoserine lactone (C6-HSL) was purchased from Sigma-Aldrich. CV026 was cultivated in Luria-Bertani (LB) medium (LB, 5 g yeast extract, 10 g tryptone, 5 g NaCl, 1 L water) at 30° C. overnight under aerobic conditions. A standard disc-diffusion assay was used to detect anti-quorum sensing activity of V and capsaicin by making use of double layer culture plates. 15 ml LB medium (2.5% agar) was overlaid with 15 ml LB (1.0% agar) containing 50 μl C. violaceum CV026 with 20 μg/ml-1 kanamycin and 50 ng/ml C6-AHL. Test concentrations of V and capsaicin were added onto sterile disks (8 mm diameter) and placed on the agar. The plates were then incubated overnight at 30° C. and quorum sensing inhibition was detected as a less colored/colourless zone around the disk, where viable cells, indicative of growth but quorum sensing inhibition, were present. Measurements were made from the outer edge of the discs to the edge of the zones of anti-quorum sensing inhibition. The formulation solvent (10% aqueous ethanol) was used as the negative control.
The biosensor strain, C. violaceum CV026, is a mutant of the wild type strain and is unable to produce its own AHL signal. It only responds to exogenous active signal molecules and produces a purple color, violacein. Loss of this purple color around the disk when incubated with exogenous AHL is thus indicative of QS inhibition by the test compounds. More specifically, the zone (mm past the disk) of QS inhibition results in an opaque disc with no purple color but bacterial growth. […] The results are shown below in Table 1, wherein QS denotes quorum sensing.

[2] = tested on: Escherichia coli O157:H7; assay: Inhibition of biofilm formation, crystal violet staining assay; conditions: for Biofilm (OD 595 nm): 24 hr; for Biofilm (OD 595 nm) / biofilm formed (CVSA), in words: 30° C.
Method: (§2) Biofilm formation was quantified with modifications using the method described by Stepanovic et al. (Journal of Microbiological Methods, 2000, 40(2), 175-19) with modifications. Using a 96-well microplate duplicate the test solutions were filled at the above selected doses. Cultures were grown for 18 hr in LB at 30° C. and adjusted to OD 0.1 at 600 nm. 20 μL of the culture were added into each well and the remainder of the volume to 200 μL per well was filled with LB. Unused external wells were filled with 200 μL of sterile water to prevent evaporation.
(§3) After 24 hr of incubation, supernatants were discarded, and the wells were washed three times with 200 μL of sterile phosphate buffered saline (PBS). Bacteria adhered to the wells were fixed with 200 μL of methanol for 15 min, the methanol was discarded, and the plates dried at 25° C.
(§4) Each well was stained with 200 μL of 0.3% (w/v) crystal violet solution for 5 min at 25° C. Crystal violet excess was pipetted out, and the wells were rinsed five times with sterile PBS. 200 μL of 33% (v/v) glacial acetic acid were added to the wells for 30 min to solubilise the dye adhered to the cell walls. Optical density (OD) was measured at 595 nm using a microplate spectrophotometer as a direct measure of biofilm formation. P. aeruginosa in 3% DMSO will be used as the negative control.
as §1, with “μg” for “ug”, “phenylcapsaicin” for “compound V”, “μL” for “μl”, “double and then quadruple” for “double”, “500/125/31.25 (32)/7.81 (8)” for “500/250/125/62.5/31.25/15.625/7.81”
(§5) E. coli O157:H7 was used to determine the biofilm inhibition activity. Inducer N-hexanoyl homoserine lactone (C6-HSL) was purchased from Sigma-Aldrich. E. coli O157:H7 was cultivated in Luria-Bertani (LB) medium (LB, 5 g yeast extract, 10 g tryptone, 5 g NaCl, 1 L water) at 37° C. overnight under aerobic conditions.
Crystal violet staining assay was performed as in Experiment 3, using E. coli O157:H7 in 3% DMSO as the control.

[3] = tested on: Salmonella enterica subsp. enterica serovar Paratyphi C (ATCC® BAA1714™); assay: Inhibition of biofilm formation with different capsaicyn compounds, crystal violet staining assay (Example 6); conditions: for Biofilm (OD 595 nm): 24 hr; for interference with the biofilm readings, in words: 125 μg/ml dose
Method: as §2, §3, §4
A stock solution of 500 μg of phenylcapsaicin, capsaicin, compound a, compound b, compound c, was prepared by dissolving 500 μg in 100 μl of ethanol and 900 μl of sterile water. The stock solutions were sequentially diluted with quadruple volumes of solvent (10% aqueous ethanol solution) to yield 125/31.25 (32)/7.81 (8)/1.95 (2) μg/ml test solutions.
as §5, with “ATCC® BAA1714™” for “E. coli O157:H7”
Crystal violet staining assay was performed as in Experiment 3, using ATCC® BAA1714™ in 3% DMSO as the control.

[4] = CV026, read-out: Antibacterial (zone of growth inhibition)
[5] = CV026, read-out: QS (zone of quorum sensing inhibition)

| SMILES | QS (zone of quorum sensing inhibition) ([1]; 125 μg/mL) | QS (zone of quorum sensing inhibition) ([1]; 250 μg/mL) | QS (zone of quorum sensing inhibition) ([1]; 500 μg/mL) | zone of inhibition at 7.81 µg/mL [1, 4] [mm] | zone of inhibition at 15.63 µg/mL [1, 4] [mm] | zone of inhibition at 31.13 µg/mL [1, 4] [mm] | zone of inhibition at 62.5 µg/mL [1, 4] [mm] | zone of inhibition at 125 µg/mL [1, 4] [mm] | zone of inhibition at 250 µg/mL [1, 4] [mm] | zone of inhibition at 500 µg/mL [1, 4] [mm] | zone of inhibition at 7.81 µg/mL [1, 5] [mm] | zone of inhibition at 15.63 µg/mL [1, 5] [mm] | zone of inhibition at 31.13 µg/mL [1, 5] [mm] | Biofilm (OD 595 nm) ([2]; 8 μg/mL) | Biofilm (OD 595 nm) ([2]; 32 μg/mL) | Biofilm (OD 595 nm) ([3]; 2 μg/mL, 30° C.) | Biofilm (OD 595 nm) ([3]; 8 μg/mL, 30° C.) | Biofilm (OD 595 nm) ([3]; 32 μg/mL, 30° C.) | interference with the biofilm readings, in words [3] | other results |
| --- | --- | --- | --- | --- | --- | --- | --- | --- | --- | --- | --- | --- | --- | --- | --- | --- | --- | --- | --- | --- |
| COc1cc(CNC(=O)CCCCC#Cc2ccccc2)ccc1O [Phenylcapsaicin, N-[(4-hydroxy-3-methoxyphenyl)methyl]-7-phenylhept-6-ynamide] | NO | NO | NO | 0 | 0 | 0 | 3 | 5 | 9 | 10 | 3 | 9 | 11 | 4.9^b OD 595 nm | 2.4^b OD 595 nm | 2.5 | 2.8 | 3.4 | antibacterial interference | quorum sensing inhibiting activity (in words) ([1]; 61.5/31.25/15.625/7.81 μg/ml doses): strong to weak; zone of inhibition at 62.5 µg/mL [1, 5]: 7 mm; antibacterial activity (in words) ([1]; higher doses (500/250/125 μg/ml)): antibacterial activity; biofilm formed (CVSA), in words ([2]; 8 μg/ml lowest dose tested): no effect; biofilm formed (CVSA), in words ([2]; 125 and 32 μg/ml): significantly reduced; also recorded: good inhibitor of biofilm formation; biofilm formed (CVSA), in words ([3]; 32, 8 and 2 μg/ml, 30° C.): significantly reduced; also recorded: good inhibitor of biofilm formation |
| COc1cc(CNC(=O)CCCC/C=C/C(C)C)ccc1O [Capsaicin, (E)-N-(4-hydroxy-3-methoxybenzyl)-8-methylnon-6-enamide, reference compound] | NO | NO | NO | 0 | 0 | 0 | 8 | 9 | 14 | 11 | 0 | 0 | 0 | 5.9^a OD 595 nm | 5.8^a OD 595 nm | 8.2 | 8.6 | 8.2 | antibacterial interference | QS (zone of quorum sensing inhibition) ([1]; 62.5 μg/mL): NO; quorum sensing inhibiting activity (in words) ([1]; non antibacterial doses (31.25/15.625/7.81 μg/ml)): did not exhibit quorum sensing inhibiting activity; Biofilm (OD 595 nm) ([2]; 125 μg/mL): 5.1^a OD 595 nm; biofilm formation inhibition, in words ([2]; 125, 32 and 8 μg/ml, any dose tested): did not show any reduction of biofilm formation; also recorded: did not exhibit any biofilm formation inhibition; biofilm formation inhibition activity, in words ([3]; any dose tested (125, 32, 8, 2 μg/ml)): did not show reduction biofilm formation |
